In test [1] the target is T1, human transferrin receptor (hTfR) (Homo sapiens, UniProt P02786). In words: SPR measurement under pH 7.4 conditions (Biacore T200, CM3 chip, hTfR captured by His Tag antibody). The format is binding. As to conditions: pH 7.4, single-cycle kinetics; read-out: hTfR SPR pH7.4 KD. Background: Surface plasmon resonance follows binding to a sensor surface in real time, without labels.

Test [2] addresses T1, human transferrin receptor (hTfR). In words: SPR measurement under pH 6.0 conditions (Biacore T200, NTA chip, immobilized hTfR). The format is binding. As to conditions: pH 6.0, single-cycle kinetics; read-out: hTfR SPR pH6.0 KD.

pKd: −log10 of the molar value. Bridge positions count the residues as written; N and C are the ends. Square brackets hold non-standard residues; d marks the D form. Peptide text beside a SMILES is read from it. * marks the point of attachment. NH(1-deoxy-D-glucityl) = OC[C@@H](O)[C@@H](O)[C@H](O)[C@@H](O)CN*; Trp(1-CH2COOH) = N[C@@H](Cc1cn(CC(=O)O)c2ccccc12)C(=O)O; CH2CON(CH2CH2)2NCH2COOH = O=C(O)CN1CCN(C(=O)C*)CC1; Nle(6-morpholino) = N[C@@H](CCCCN1CCOCC1)C(=O)O; Phe(3-COOH) = N[C@@H](Cc1cccc(C(=O)O)c1)C(=O)O; Trp(7-aza) = N[C@@H](Cc1c[nH]c2ncccc12)C(=O)O; NH(CH2CH2O)8Me = COCCOCCOCCOCCOCCOCCOCCOCCN*; NMePhe(3-Cl) = CN[C@@H](Cc1cccc(Cl)c1)C(=O)O; 3Pal(6-NH2) = Nc1ccc(C[C@H](N)C(=O)O)cn1; NMeY = CN[C@@H](Cc1ccc(O)cc1)C(=O)O; 4Pal = N[C@@H](Cc1ccncc1)C(=O)O; PEG4 = NCCOCCOCCOCCOCCC(=O)O

T1 sequence (P02786 whole entry): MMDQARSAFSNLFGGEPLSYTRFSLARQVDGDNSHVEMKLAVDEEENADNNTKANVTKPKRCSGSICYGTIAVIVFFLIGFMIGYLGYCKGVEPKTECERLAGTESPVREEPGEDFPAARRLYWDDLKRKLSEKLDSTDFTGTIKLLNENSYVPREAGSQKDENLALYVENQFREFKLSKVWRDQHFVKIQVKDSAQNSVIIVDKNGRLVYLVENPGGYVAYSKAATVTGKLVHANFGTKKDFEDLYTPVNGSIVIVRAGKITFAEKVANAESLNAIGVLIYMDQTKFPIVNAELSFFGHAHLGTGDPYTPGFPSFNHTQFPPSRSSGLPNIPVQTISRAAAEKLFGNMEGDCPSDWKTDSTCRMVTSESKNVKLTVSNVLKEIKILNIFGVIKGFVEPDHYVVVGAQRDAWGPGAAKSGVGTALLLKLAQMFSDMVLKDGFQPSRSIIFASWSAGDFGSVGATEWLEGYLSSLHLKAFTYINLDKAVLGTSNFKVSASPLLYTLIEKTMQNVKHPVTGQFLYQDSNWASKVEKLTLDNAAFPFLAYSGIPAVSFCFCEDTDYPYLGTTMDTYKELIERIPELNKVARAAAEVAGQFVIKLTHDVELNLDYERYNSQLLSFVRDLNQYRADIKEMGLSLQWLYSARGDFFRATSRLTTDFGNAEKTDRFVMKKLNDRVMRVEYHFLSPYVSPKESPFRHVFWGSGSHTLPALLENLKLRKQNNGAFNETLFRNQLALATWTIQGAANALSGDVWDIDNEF

Turning to `CC[C@H](C)[C@@H]1NC(=O)[C@H](Cc2ccc(OC)cc2)NC(=O)[C@H](Cc2ccc(N)nc2)NC(=O)[C@H](CC(N)=O)NC(=O)[C@H](Cc2c[nH]c3ncccc23)NC(=O)[C@H](C(C)C)NC(=O)[C@H](Cc2cccc(Cl)c2)N(C)C(=O)[C@H](C(C)C)NC(=O)[C@H](C)NC(=O)CSC[C@@H](C(=O)NCCOCCOCCOCCOCCC(N)=O)NC(=O)[C@H](Cc2ccc(O)cc2)N(C)C(=O)[C@H](Cc2ccncc2)NC(=O)[C@H](CCCCN2CCOCC2)NC(=O)[C@H](CCC(=O)NC[C@H](O)[C@@H](O)[C@H](O)[C@H](O)CO)NC(=O)[C@H]([C@@H](C)CC)NC1=O` [compound 20] ({CH2CO}-AV[NMePhe(3-Cl)]V[Trp(7-aza)]N[3Pal(6-NH2)]Y(Me)IIE(NH(1-deoxy-D-glucityl))[Nle(6-morpholino)][4Pal][NMeY]C[PEG4]-NH2; thioether N-15), the results for the pKd in test [1] and in test [2] were 8.39 and 7.38, respectively.
For `CC[C@H](C)[C@@H]1NC(=O)[C@H](Cc2ccc(OCC(=O)N3CCN(CC(=O)O)CC3)cc2)NC(=O)[C@H](Cc2ccc(O)cc2)NC(=O)[C@H](CC(N)=O)NC(=O)[C@H](Cc2c[nH]c3ncccc23)NC(=O)[C@H](C(C)C)NC(=O)[C@H](Cc2cccc(Cl)c2)N(C)C(=O)[C@H](C(C)C)NC(=O)[C@H](C)NC(=O)CSC[C@@H](C(=O)NCCOCCOCCOCCOCCC(N)=O)NC(=O)[C@H](Cc2ccc(O)cc2)N(C)C(=O)[C@H](Cc2cccc(C(=O)O)c2)NC(=O)[C@H](CCCCN2CCOCC2)NC(=O)[C@H](CCC(=O)NCCOCCOCCOCCOCCOCCOCCOCCOC)NC(=O)[C@H]([C@@H](C)CC)NC1=O` [compound 21] ({CH2CO}-AV[NMePhe(3-Cl)]V[Trp(7-aza)]NYY(CH2CON(CH2CH2)2NCH2COOH)IIE(NH(CH2CH2O)8Me)[Nle(6-morpholino)][Phe(3-COOH)][NMeY]C[PEG4]-NH2; thioether N-15) the same measures were 8.27 and 7.00.
The matching figures for `CC[C@H](C)[C@@H]1NC(=O)[C@H](Cc2ccc(OCC(=O)N3CCN(CC(=O)O)CC3)cc2)NC(=O)[C@H](Cc2ccc(O)cc2)NC(=O)[C@H](CC(N)=O)NC(=O)[C@H](Cc2cn(CC(=O)O)c3ccccc23)NC(=O)[C@H](C(C)C)NC(=O)[C@H](Cc2cccc(Cl)c2)N(C)C(=O)[C@H](C(C)C)NC(=O)[C@H](C)NC(=O)CSC[C@@H](C(=O)NCCOCCOCCOCCOCCC(N)=O)NC(=O)[C@H](Cc2ccc(O)cc2)N(C)C(=O)[C@H](Cc2ccncc2)NC(=O)[C@H](CCCCN2CCOCC2)NC(=O)[C@H](CCC(=O)NCCOCCOCCOCCOCCOCCOCCOCCOC)NC(=O)[C@H]([C@@H](C)CC)NC1=O` [compound 22]: 8.39 and 6.69.
In the case of `CC[C@H](C)[C@@H]1NC(=O)[C@H](Cc2ccc(OCC(=O)N3CCN(CC(=O)O)CC3)cc2)NC(=O)[C@H](Cc2ccc(O)cc2)NC(=O)[C@H](CC(N)=O)NC(=O)[C@H](Cc2c[nH]c3ncccc23)NC(=O)[C@H](C(C)C)NC(=O)[C@H](Cc2cccc(Cl)c2)N(C)C(=O)[C@H](C(C)C)NC(=O)[C@H](C)NC(=O)CSC[C@@H](C(=O)NCCOCCOCCOCCOCCC(N)=O)NC(=O)[C@H](Cc2ccc(O)cc2)N(C)C(=O)[C@H](Cc2ccncc2)NC(=O)[C@H](CCCCN2CCOCC2)NC(=O)[C@H](CCC(N)=O)NC(=O)[C@H]([C@@H](C)CC)NC1=O` [compound 23], the pKd in test [1] was 8.46; in test [2] it was 7.48.
The matching figures for `CC[C@H](C)[C@@H]1NC(=O)[C@H](Cc2ccc(OCC(=O)N3CCN(CC(=O)O)CC3)cc2)NC(=O)[C@H](Cc2ccc(O)cc2)NC(=O)[C@H](CC(N)=O)NC(=O)[C@H](Cc2c[nH]c3ncccc23)NC(=O)[C@H](C(C)C)NC(=O)[C@H](Cc2cccc(Cl)c2)N(C)C(=O)[C@H](C(C)C)NC(=O)[C@H](C)NC(=O)CSC[C@@H](C(=O)NCCOCCOCCOCCOCCC(N)=O)NC(=O)[C@H](Cc2ccc(O)cc2)N(C)C(=O)[C@H](Cc2cccc(C(=O)O)c2)NC(=O)[C@H](CCCCN2CCOCC2)NC(=O)[C@H](CCC(N)=O)NC(=O)[C@H]([C@@H](C)CC)NC1=O` [compound 24] ({CH2CO}-AV[NMePhe(3-Cl)]V[Trp(7-aza)]NYY(CH2CON(CH2CH2)2NCH2COOH)IIQ[Nle(6-morpholino)][Phe(3-COOH)][NMeY]C[PEG4]-NH2; thioether N-15): 8.70 and 7.57.
As for `CC[C@H](C)[C@@H]1NC(=O)[C@H](Cc2ccc(OCC(=O)N3CCN(CC(=O)O)CC3)cc2)NC(=O)[C@H](Cc2ccc(O)cc2)NC(=O)[C@H](CC(N)=O)NC(=O)[C@H](Cc2cn(CC(=O)O)c3ccccc23)NC(=O)[C@H](C(C)C)NC(=O)[C@H](Cc2cccc(Cl)c2)N(C)C(=O)[C@H](C(C)C)NC(=O)[C@H](C)NC(=O)CSC[C@@H](C(=O)NCCOCCOCCOCCOCCC(N)=O)NC(=O)[C@H](Cc2ccc(O)cc2)N(C)C(=O)[C@H](Cc2ccncc2)NC(=O)[C@H](CCCCN2CCOCC2)NC(=O)[C@H](CCC(N)=O)NC(=O)[C@H]([C@@H](C)CC)NC1=O` [compound 25], the pKd in test [1] is 8.47; in test [2] it was 7.24.
The matching figures for `CC[C@H](C)[C@@H]1NC(=O)[C@H](Cc2ccc(OCC(=O)NC[C@H](O)[C@@H](O)[C@H](O)[C@H](O)CO)cc2)NC(=O)[C@H](Cc2ccc(O)cc2)NC(=O)[C@H](CC(N)=O)NC(=O)[C@H](Cc2c[nH]c3ncccc23)NC(=O)[C@H](C(C)C)NC(=O)[C@H](Cc2cccc(Cl)c2)N(C)C(=O)[C@H](C(C)C)NC(=O)[C@H](C)NC(=O)CSC[C@@H](C(=O)NCCOCCOCCOCCOCCC(N)=O)NC(=O)[C@H](Cc2ccc(O)cc2)N(C)C(=O)[C@H](Cc2ccncc2)NC(=O)[C@H](CCCNC(=N)N)NC(=O)[C@H](CCC(=O)NC[C@H](O)[C@@H](O)[C@H](O)[C@H](O)CO)NC(=O)[C@H]([C@@H](C)CC)NC1=O` [compound 26]: 8.76 and 7.87.
For the compound `CC[C@H](C)[C@@H]1NC(=O)[C@H](Cc2ccc(OCC(=O)NC[C@H](O)[C@@H](O)[C@H](O)[C@H](O)CO)cc2)NC(=O)[C@H](Cc2ccc(O)cc2)NC(=O)[C@H](CC(N)=O)NC(=O)[C@H](Cc2c[nH]c3ncccc23)NC(=O)[C@H](C(C)C)NC(=O)[C@H](Cc2cccc(Cl)c2)N(C)C(=O)[C@H](C(C)C)NC(=O)[C@H](C)NC(=O)CSC[C@@H](C(=O)NCCOCCOCCOCCOCCC(N)=O)NC(=O)[C@H](Cc2ccc(O)cc2)N(C)C(=O)[C@H](Cc2ccncc2)NC(=O)[C@H](CCCCN2CCOCC2)NC(=O)[C@H](CCC(=O)NC[C@H](O)[C@@H](O)[C@H](O)[C@H](O)CO)NC(=O)[C@H]([C@@H](C)CC)NC1=O` [compound 27], the pKd was 8.52 in test [1] and 7.81 in test [2].
The matching figures for `CC[C@H](C)[C@@H]1NC(=O)[C@H](Cc2ccc(OCC(=O)NC[C@H](O)[C@@H](O)[C@H](O)[C@H](O)CO)cc2)NC(=O)[C@H](Cc2ccc(O)cc2)NC(=O)[C@H](CC(N)=O)NC(=O)[C@H](Cc2c[nH]c3ncccc23)NC(=O)[C@H](C(C)C)NC(=O)[C@H](Cc2cccc(Cl)c2)N(C)C(=O)[C@H](C(C)C)NC(=O)[C@H](C)NC(=O)CSC[C@@H](C(=O)NCCOCCOCCOCCOCCC(N)=O)NC(=O)[C@H](Cc2ccc(O)cc2)N(C)C(=O)[C@H](Cc2ccncc2)NC(=O)[C@H](CCCCN2CCOCC2)NC(=O)[C@H](CCC(N)=O)NC(=O)[C@H]([C@@H](C)CC)NC1=O` [compound 29]: 8.66 and 7.95.
Regarding `CC[C@H](C)[C@@H]1NC(=O)[C@H](Cc2ccc(OCC(=O)N3CCN(CC(=O)O)CC3)cc2)NC(=O)[C@H](Cc2ccc(O)cc2)NC(=O)[C@H](CC(N)=O)NC(=O)[C@H](Cc2cn(CC(=O)O)c3ccccc23)NC(=O)[C@H](C(C)C)NC(=O)[C@H](Cc2cccc(Cl)c2)N(C)C(=O)[C@H](C(C)C)NC(=O)[C@H](C)NC(=O)CSC[C@@H](C(=O)NCCOCCOCCOCCOCCC(N)=O)NC(=O)[C@H](Cc2ccc(O)cc2)N(C)C(=O)[C@H](Cc2ccccc2)NC(=O)[C@H](CCCCN2CCOCC2)NC(=O)[C@H](CCC(=O)NCCOCCOCCOCCOCCOCCOCCOCCOC)NC(=O)[C@H]([C@@H](C)CC)NC1=O` [compound 30] ({CH2CO}-AV[NMePhe(3-Cl)]V[Trp(1-CH2COOH)]NYY(CH2CON(CH2CH2)2NCH2COOH)IIE(NH(CH2CH2O)8Me)[Nle(6-morpholino)]F[NMeY]C[PEG4]-NH2; thioether N-15), the pKd in test [1] is 7.99; in test [2], 7.02.
The matching figures for `CC[C@H](C)[C@@H]1NC(=O)[C@H](Cc2ccc(OCC(=O)N3CCN(CC(=O)O)CC3)cc2)NC(=O)[C@H](Cc2ccc(O)cc2)NC(=O)[C@H](CC(N)=O)NC(=O)[C@H](Cc2c[nH]c3ccccc23)NC(=O)[C@H](C(C)C)NC(=O)[C@H](Cc2cccc(Cl)c2)N(C)C(=O)[C@H](C(C)C)NC(=O)[C@H](C)NC(=O)CSC[C@@H](C(=O)NCCOCCOCCOCCOCCC(N)=O)NC(=O)[C@H](Cc2ccc(O)cc2)N(C)C(=O)[C@H](Cc2cccc(C(=O)O)c2)NC(=O)[C@H](CCCCN2CCOCC2)NC(=O)[C@H](CCC(=O)NCCOCCOCCOCCOCCOCCOCCOCCOC)NC(=O)[C@H]([C@@H](C)CC)NC1=O` [compound 31] ({CH2CO}-AV[NMePhe(3-Cl)]VWNYY(CH2CON(CH2CH2)2NCH2COOH)IIE(NH(CH2CH2O)8Me)[Nle(6-morpholino)][Phe(3-COOH)][NMeY]C[PEG4]-NH2; thioether N-15): 8.61 and 7.77.
For `CC[C@H](C)[C@@H]1NC(=O)[C@H](Cc2ccc(OCC(=O)N3CCN(CC(=O)O)CC3)cc2)NC(=O)[C@H](Cc2ccc(O)cc2)NC(=O)[C@H](CC(N)=O)NC(=O)[C@H](Cc2cn(CC(=O)O)c3ccccc23)NC(=O)[C@H](C(C)C)NC(=O)[C@H](Cc2cccc(Cl)c2)N(C)C(=O)[C@H](C(C)C)NC(=O)[C@H](C)NC(=O)CSC[C@@H](C(=O)NCCOCCOCCOCCOCCC(N)=O)NC(=O)[C@H](Cc2ccc(O)cc2)N(C)C(=O)[C@H](Cc2cccc(C(=O)O)c2)NC(=O)[C@H](CCCCN2CCOCC2)NC(=O)[C@H](CCCCN2CCOCC2)NC(=O)[C@H]([C@@H](C)CC)NC1=O` [compound 32] ({CH2CO}-AV[NMePhe(3-Cl)]V[Trp(1-CH2COOH)]NYY(CH2CON(CH2CH2)2NCH2COOH)II[Nle(6-morpholino)][Nle(6-morpholino)][Phe(3-COOH)][NMeY]C[PEG4]-NH2; thioether N-15) the same measures were 8.66 and 7.57.

One may read the pKd as −log10 of the Kd, conventionally taken in molar units.

The values are drawn from patent EP4667483A1, “HUMAN TRANSFERRIN RECEPTOR-BINDING PEPTIDE” (JCR Pharmaceuticals Co., Ltd., priority 2023, dated 2024).
